# How the values were obtained:
# [1] = system: C57BL6/J mice exposed intranasally to house dust mite extract (HDM); assay: HDM animal model of allergic airway inflammation; format: in vivo, mouse
# Procedure: Mice received water as a control or L-tyrosine (reagent grade, ≥98% Sigma-Aldrich, St. Louis, Mo.) resuspended in drinking water under sterile conditions at the concentration of 100 mg/kg/day or 500 mg/kg/day (based on the assumption of a mouse consuming 4 ml of water daily). All mice received the treatment 2 weeks prior and throughout the experiment. […] Control mice received 200 μl of saline. […]. For experiments employing antibiotic treatment, 3-week old mice were treated with a combination enrofloxacin (10 mg/kg/day) and amoxicillin with clavulanic acid (1 mg/kg/day) for one week, followed by one week of only amoxicillin with clavulanic acid (1 mg/kg/day). Then, mice were then put on L-tyrosine diet in drinking water for two weeks followed by HDM exposure as before. During this time, mice were maintained on antibiotic treatment with amoxicillin/clavulanic acid until end of experiment.
# Mice were anaesthetised by the inhalation of 4% isoflurane in oxygen for 3-5 minutes. 20 μg of protein content of crude house dust mite extract (HDM) (Greer Laboratories Inc., Lenoir, N.C.) in 20 μl of sterile phosphate-buffered saline (PBS) (Gibco™) was applied intranasally on days 0, 11, 12 and 13. Mice were humanely sacrificed with the lethal dose of pentobarbital (Streuli Pharma AG, Uznach, Switzerland) on day 14.
# Bronchoalveolar lavage fluid (BALF) was collected by flushing airways with 0.5 ml PBS supplemented with 0.2% bovine serum albumin (Sigma-Aldrich, St. Louis, Mo.). Total cell number was determined with Coulter Counter (IG Instrumenten-Gesellschaft AG, Basel, Switzerland) while differential cell staining performed on cytospins stained with Diff-Quik solution (Dade Behring, Siemens Healthcare Diagnostics, Deerfield, Ill.). Percentages of neutrophils, macrophages, lymphocytes and eosinophils were assessed by counting 200 cells per sample.
# Concentrations of interleukin-4, -5, -13, -17 and IFN-γ in culture supernatants were analysed with mouse Ready-Set-Go!™ ELISA kits (eBioscience™, San Diego, Calif.) according to manufacturer's instructions. To measure the levels of HDM-specific IgG1 and IgE in plasma, half area 96-well plates (Corning) were coated with HDM (10 μg in PBS) overnight at 4° C., followed by the incubation of samples for 2 hours at RT, and the addition of alkaline-phophatase-conjugated goat anti-mouse IgE or IgG1 (both from SouthernBiotech, Birmingham, Ala.; diluted at 1 μg ml-1 in PBS 0.2% BSA) for 2 hours at RT. 4-nitrophenyl phosphate sodium salt hexahydrate (pNPP) (Sigma) was used as a substrate, and the colorimetric reaction was read at 405 nm on the Synergy H1 microplate reader (Biotek, Luzern, Switzerland). To measure the levels of total IgA and IgM as well as hen egg lysozyme (HEL)-specific IgA and IgM in mouse faeces, faecal pellets were homogenized in 0.8 ml cold PBS, centrifuged at 400 g for 5 minutes to remove large debris, filtered through 40 μm cell strainer and centrifuged at 8000 g for 10 minutes to pellet bacteria. The supernatant was collected and loaded for 2 hours at RT on 96-well half area plates coated a day before at 4° C. with anti-IgA (Southern Biotech; 2 μg ml-1), anti-IgM (SouthernBiotech; 2 μg ml-1) or HEL protein (Sigma-Aldrich; 10 μg/ml). This step was followed by the addition of alkalinephophatase-conjugated goat anti-mouse IgA or IgM (both at 1 μg ml-1 in PBS 0.2% BSA) for 2 hours at RT. 4-nitrophenyl phosphate sodium salt hexahydrate (pNPP) (Sigma) was used as a substrate, and the colorimetric reaction was read at 405 nm as before.
# Mediastinal lymph nodes were filtered through a 40 μm cell strainer, washed with PBS supplemented with 1% fetal bovine serum and 2 mM EDTA (Invitrogen) (MACS buffer). Lungs were finely cut with scissors, digested with Collagenase IV (Gibco™) in Iscove's modified Dulbecco's medium (IMDM, Gibco™) for 50 min at 37° C. and processed as the lymph nodes.
# [2] = system: pulmonary DCs; assay: DC:T cell co-culture (priming of naive OT-II cells / restimulation of effector Th cells); format: cell-based, mouse; details: pulmonary DCs from L-tyrosine-treated mice
# Description: Data from a-c are pooled from two experiments (a, b, n=10 biologically independent samples per group; c, n=9 biologically independent samples per group). Data in d represent technical replicates (n=6 left panel, n=5 right panel) from one experiment. Data in e are pooled from 3 independent experiments (n=6 per group). Data in f are pooled from two independent experiments (n=5 biologically independent samples per group). Data in g are pooled from two independent experiments (n=9 biologically independent samples per group). Data in h are pooled from two independent experiments (n=4 biologically independent samples per group). All data are presented as mean values±s.e.m. Statistical significance for a-d, f, g, was evaluated with unpaired Student's t-test (in the case of Gaussian distribution) or Mann-Whitney test (non-Gaussian distribution). Statistical significance for e, h was determined with One-Way analysis of variance (ANOVA) with Dunnett correction for multiple comparisons. Data distribution was assessed with D'Agostino & Pearson normality test. *p≤0.05, **p≤0.01, ***p≤0.001, ****p≤0.0001
# DC: T cell co-cultures were set-up by sorting CD11c+ SiglecF− (DCs) and CD4+CD44+ T cells from the lungs of HDM-immunized mice on FACSAria III (BD Biosciences™, San Jose, Calif.). […]
# [3] = L-tyrosine oral in drinking water
structure (smiles),measurement,setting,value
N[C@@H](Cc1ccc(O)cc1)C(=O)O [L-tyrosine],FoxP3+ Treg cells in the lungs,[1]; [3],not altered
same,numbers of T helper cells in the lungs,[1]; [3],not altered
same,recruitment of DCs (lungs),[1]; [3],reduced
same,recruitment of neutrophils (BALF),[1]; [3],reduced
same,recruitment of eosinophils (BALF),"[1]; L-tyrosine oral in drinking water, 2 weeks prior and throughout, vs water",reduced
same,IL-5 concentrations in culture supernatants of mediastinal LNs,"[1]; L-tyrosine oral in drinking water, not reaching statistical significance",trend towards a decrease
same,production of IL-13 by restimulated mediastinal LNs,"[1]; L-tyrosine oral in drinking water, restimulated with HDM for 4 days",reduced
same,"protective effect of L-tyrosine under antibiotic treatment (eosinophils, DCs, IL-5 in BALF)",[1]; L-tyrosine oral plus enrofloxacin and amoxicillin/clavulanic acid (microbiota depletion),abrogated
same,CCL20 concentrations in the BALF,[1]; L-tyrosine-treated wild-type mice exposed to HDM,reduced
same,capacity of DCs to restimulate in vivo-primed effector T helper cells into an IL-13-producing subset,[2],impaired
same,capacity of DCs to prime naive CD4+ T cells into an IL-13-producing subset,[2]; OT-II cells,impaired
